# Source: US4288630A, “1-Hydroxymethyl-11,15-dihydroxy-prosten-1-ol-derivatives” (American Cyanamid Company, priority 1980, dated 1981)
# Assays:
# Type in all cases: in vivo, dog
# Conditions in all cases: Konzett data
# [1] = tested on: 5-HT; assay: Konzett bronchodilator assay, 5-HT
# [2] = tested on: Hist; assay: Konzett bronchodilator assay, Hist
# [3] = tested on: Ach; assay: Konzett bronchodilator assay, Ach
smiles,measurement,setting,value
"CCCCCC(C)(O)/C=C/C1C(O)CC(=O)C1C/C=C\CCCCO (racemic) [dl-1,11,15-trihydroxymethyl-9-oxo-15-methyl-5-cis-13-trans prostadiene]",5-HT (ED50 g/kg),[1],0.0083 g/kg
same,Hist (ED50 g/kg),[2],0.00075 g/kg
same,Ach (ED50 g/kg),[3],0.0043 g/kg
